Data: US12098176B2, “Keratin BD-4, preparation method, and pharmaceutical composition and use thereof” (Institute of Materia Medica, Chinese Academy of Medical …, priority 2019, dated 2024)
Structures can show the parent of a compound that is named as a salt.

Tested on: phenol red excretion in mice
Experiment: Expectorant test, phenol red excretion method in mice
Type: in vivo, mouse
Procedure: Experimental example 5 The pharmacodynamic test of protein BD-4 (Example 4 protein) on the expectorant of phenol red excretion method in mice.
• Solvent control group; • Mucosultan 30 mg/kg group; • Protein BD-4, 20 mg/kg group, 50 mg/kg group. Method: Model Preparation and Administration:
The animals were fasted and watered 16 hours before the experiment. Orally administered Mucosultan and different doses of protein BD-4 (administration volume 10 ml/kg) in groups, and the solvent control group was given the same volume of distilled water. One hour later, 2.5% phenol red solution was injected intraperitoneally, Kill the mouse by removing the neck after 30 minutes. Take the trachea from below the thyroid cartilage to the branch of the trachea. Put the trachea into 3 ml 5% NaHCO3 solution and let it stand for 3 hours. Take 1 ml of the supernatant and centrifuge at 3000 rpm for 5 minutes. Measure and record the absorbance at 546 nm. According to the standard curve of phenol red, the excretion of phenol red was calculated.
Record the time point of oral administration, the time point of intraperitoneal injection of 2.5% phenol red solution, and the time point of tracheal extraction respectively; The absorbance of each group of samples was measured by the microplate reader at 546 nm, Calculate the excretion of phenol red according to the standard curve of phenol red. […]

For `Nc1c(Br)cc(Br)cc1CN[C@H]1CC[C@H](O)CC1` [Mucosolvan, ambroxol hydrochloride, reference compound], the Phenol red excretion (Mucosolvan 30 mg/kg oral, X ± SEM) was 1.138 ± 0.079 µg/mL and the “Phenol red excretion vs solvent control group” value (Mucosultan 30 mg/kg, P<0.05) was “significantly increased”.
